PubChem BioAssay AID1918943 (Molecular Pharmacology Branch, DTP, NCI, 2023)

Tested on: 855422-203-R-J1-PDC complex spheroid viability
Assay: Anticancer human tumor 855422-203-R-J1-PDC patient-derived bladder carcinoma cell line growth inhibition
Conditions: for IC50: curve of first compound; for viability, T/C: stronger effect = lower value
In short: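 Complex spheroids of tumor cells with HUVEC and human MSCs, exposed to iadademstat combined with other agents. Each agent tested in half-log steps from near clinical Cmax (else 10 microM top), DMSO ≤0.25%.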

[1] = second compound 0.1 µM, first compound 0.0316 µM
[2] = second compound 0.1 µM, first compound 0.1 µM
[3] = second compound 0.1 µM, first compound 0.316 µM
[4] = second compound 0.1 µM, first compound 1 µM
[5] = second compound 0.1 µM, first compound 3.16 µM
[6] = second compound 0.1 µM, first compound 10 µM
[7] = second compound 0.316 µM, first compound 0.0316 µM
[8] = second compound 0.316 µM, first compound 0.1 µM
[9] = second compound 0.316 µM, first compound 0.316 µM
[10] = second compound 0.316 µM, first compound 1 µM
[11] = second compound 0.316 µM, first compound 3.16 µM
[12] = second compound 0.316 µM, first compound 10 µM
[13] = second compound 1 µM, first compound 0.0316 µM
[14] = second compound 1 µM, first compound 0.1 µM
[15] = second compound 1 µM, first compound 0.316 µM
[16] = second compound 1 µM, first compound 1 µM
[17] = second compound 1 µM, first compound 3.16 µM
[18] = second compound 1 µM, first compound 10 µM
[19] = second compound 3.16 µM, first compound 0.0316 µM
[20] = second compound 3.16 µM, first compound 0.1 µM
[21] = second compound 3.16 µM, first compound 0.316 µM
[22] = second compound 3.16 µM, first compound 1 µM
[23] = second compound 3.16 µM, first compound 3.16 µM
[24] = second compound 3.16 µM, first compound 10 µM
[25] = second compound 10 µM, first compound 0.0316 µM
[26] = second compound 10 µM, first compound 0.1 µM
[27] = second compound 10 µM, first compound 0.316 µM
[28] = second compound 10 µM, first compound 1 µM
[29] = second compound 10 µM, first compound 3.16 µM
[30] = second compound 10 µM, first compound 10 µM
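Further: drug exposure lasted 7 days starting on day 3 after seeding.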
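Wherever viability, T/C is given: luminescence viability as percent of DMSO vehicle wells = 100%.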

| SMILES | IC50 (second compound 0.1 µM) | IC50 (second compound 0.316 µM) | IC50 (second compound 1 µM) | IC50 (second compound 3.16 µM) | IC50 (second compound 10 µM) | viability, T/C [1] | viability, T/C [2] | viability, T/C [3] | viability, T/C [4] | viability, T/C [7] | viability, T/C [8] | viability, T/C [9] | viability, T/C [10] | viability, T/C [13] | viability, T/C [14] | viability, T/C [15] | viability, T/C [16] | viability, T/C [19] | viability, T/C [20] | viability, T/C [21] | also measured |
| --- | --- | --- | --- | --- | --- | --- | --- | --- | --- | --- | --- | --- | --- | --- | --- | --- | --- | --- | --- | --- | --- |
| CC(C)c1c(-c2ccccc2)nc2c(C#N)c[nH]n2c1=O + NC1CCC(NC2CC2c2ccccc2)CC1 | > 10 µM | > 10 µM | > 10 µM | > 10 µM | > 10 µM | 82.4% | 88% | 92.9% | 87.7% | 93.2% | 85.3% | 93.4% | 83.3% | 88.6% | 92.2% | 85.9% | 86.7% | 89.1% | 80.4% | 81.1% | viability, T/C [5]: 85.3%; viability, T/C [6]: 74.7%; viability, T/C [11]: 77.1%; viability, T/C [12]: 74%; viability, T/C [17]: 80.1%; viability, T/C [18]: 75.3%; viability, T/C [22]: 77.1%; viability, T/C [23]: 79.9%; viability, T/C [24]: 80.2%; viability, T/C [25]: 82.9%; viability, T/C [26]: 91.7%; viability, T/C [27]: 84.4%; viability, T/C [28]: 74.6%; viability, T/C [29]: 69.6%; viability, T/C [30]: 73.4% |
| CC1COCCN1c1cc(-c2ccnn2C)c2ccnc(-c3ccn[nH]3)c2n1 (stereo not given) + NC1CCC(NC2CC2c2ccccc2)CC1 | 0.183 µM | 0.163 µM | 0.178 µM | 0.0999 µM | 0.0861 µM | 86.5% | 59.5% | 41.5% | 33% | 90.3% | 60% | 39.5% | 33% | 96.4% | 63.8% | 38.7% | 34% | 87.4% | 49.9% | 32.5% | viability, T/C (second compound 0.1 µM, first compound 0.00316 µM): 95.1%; viability, T/C (second compound 0.1 µM, first compound 0.01 µM): 83.1%; viability, T/C (second compound 0.316 µM, first compound 0.00316 µM): 91.8%; viability, T/C (second compound 0.316 µM, first compound 0.01 µM): 78.9%; viability, T/C (second compound 1 µM, first compound 0.00316 µM): 85%; viability, T/C (second compound 1 µM, first compound 0.01 µM): 79.7%; viability, T/C (second compound 3.16 µM, first compound 0.00316 µM): 87.4%; viability, T/C (second compound 3.16 µM, first compound 0.01 µM): 83.5%; viability, T/C [22]: 27.2%; viability, T/C (second compound 10 µM, first compound 0.00316 µM): 88%; viability, T/C (second compound 10 µM, first compound 0.01 µM): 81.1%; viability, T/C [25]: 84%; viability, T/C [26]: 44.9%; viability, T/C [27]: 33.2%; viability, T/C [28]: 31.7% |
| COc1ccc([C@@H](O)c2cc(-c3ncnc4cc(N5CCOCC5)ccc34)c(F)cc2Cl)nn1 + NC1CCC(NC2CC2c2ccccc2)CC1 | 3.98 µM | 3.75 µM | 3.58 µM | 3.12 µM | 3.23 µM | 83.7% | 88.8% | 76.3% | 73.8% | 88.5% | 89.4% | 73.4% | 69.3% | 87.1% | 84.7% | 73.3% | 68% | 85.2% | 78.2% | 75.1% | viability, T/C [5]: 53.1%; viability, T/C [6]: 34.5%; viability, T/C [11]: 53%; viability, T/C [12]: 33.5%; viability, T/C [17]: 53%; viability, T/C [18]: 30.8%; viability, T/C [22]: 68.2%; viability, T/C [23]: 48.4%; viability, T/C [24]: 31.3%; viability, T/C [25]: 76.9%; viability, T/C [26]: 80%; viability, T/C [27]: 71.7%; viability, T/C [28]: 64.7%; viability, T/C [29]: 50.6%; viability, T/C [30]: 32.8% |
